ChEMBL document CHEMBL3351264, “Piperazinyl-oxadiazoles as selective sphingosine-1-phosphate receptor agonists” (Bioorg Med Chem Lett, 2014)

What was measured:
[1] = target: T1, Sphingosine 1-phosphate receptor 3 (Homo sapiens, UniProt Q99500); test: Agonist activity at human S1P3 receptor expressed in human EDG3-bla U2OS cells after 18 hrs by beta-arrestin recruitment assay; format: cell-based
[2] = target: Sphingosine 1-phosphate receptor 1 (Homo sapiens, UniProt P21453); test: Agonist activity at human S1P1 receptor expressed in human EDG1-bla U2OS cells after 18 hrs by beta-arrestin recruitment assay; format: cell-based
[3] = target: T1, Sphingosine 1-phosphate receptor 3; test: Partial agonist activity at human S1P3 receptor expressed in human EDG3-bla U2OS cells after 18 hrs by beta-arrestin recruitment assay; format: cell-based
Plasma [4] = test: Drug metabolism in rat plasma assessed as 2-amino-3-(5-chloro-4-(3-(4-(cyclopentanecarbonyl)piperazin-1-yl)-1,2,4-oxadiazol-5-yl)-2-fluorophenoxy)propyl dihydrogen phosphate formation at 3 mg/kg, po; format: ADME, organism-based; parameters: dose 3 mg/kg, route oral; conditions: in vivo
Rattus norvegicus = test: Toxicity in Lewis rat assessed as reduction in circulating lymphocyte count at 3 mg/kg, po after 4 hrs; format: organism-based; parameters: dose 3 mg/kg, route oral; conditions: in vivo
Homo sapiens = species on record: Homo sapiens; test: Selectivity ratio of EC50 for human S1P3 receptor to EC50 for human S1P1 receptor
Plasma [5] = test: Drug level in rat plasma treated with 3 mg/kg, po; format: ADME, organism-based; parameters: dose 3 mg/kg, route oral; conditions: in vivo

Sequence of Sphingosine 1-phosphate receptor 1 (P21453 whole entry): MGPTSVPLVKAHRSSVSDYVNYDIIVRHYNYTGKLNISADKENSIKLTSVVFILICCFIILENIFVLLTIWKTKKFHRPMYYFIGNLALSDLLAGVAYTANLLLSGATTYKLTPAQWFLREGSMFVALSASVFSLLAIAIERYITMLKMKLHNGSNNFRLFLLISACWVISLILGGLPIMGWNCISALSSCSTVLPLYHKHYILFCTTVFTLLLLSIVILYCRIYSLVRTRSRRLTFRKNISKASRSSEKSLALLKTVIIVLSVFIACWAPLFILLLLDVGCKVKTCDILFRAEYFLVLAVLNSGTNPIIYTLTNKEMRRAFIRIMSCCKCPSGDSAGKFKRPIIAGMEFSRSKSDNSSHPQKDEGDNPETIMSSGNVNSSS
T1 sequence (Q99500 whole entry): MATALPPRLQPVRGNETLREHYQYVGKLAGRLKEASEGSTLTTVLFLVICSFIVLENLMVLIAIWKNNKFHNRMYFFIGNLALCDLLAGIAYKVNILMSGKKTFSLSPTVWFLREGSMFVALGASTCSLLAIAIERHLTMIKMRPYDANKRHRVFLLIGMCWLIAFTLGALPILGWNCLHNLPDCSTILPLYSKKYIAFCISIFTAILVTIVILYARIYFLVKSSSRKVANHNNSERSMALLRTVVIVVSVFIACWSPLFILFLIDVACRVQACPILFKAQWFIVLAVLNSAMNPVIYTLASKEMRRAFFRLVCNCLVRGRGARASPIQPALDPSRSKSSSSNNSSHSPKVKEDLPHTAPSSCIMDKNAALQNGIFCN

Structure (SMILES)	EC50 [1] [µM]	EC50 [2] [µM]	also measured
N[C@@H](CO)COc1cc(Cl)c(-c2noc(N3CCN(C(=O)C4CCCC4)CC3)n2)cc1F	> 10	0.055	
O=C(O)CCOc1cc(Cl)c(-c2nc(N3CCN(C(=O)C4CCCC4)CC3)no2)cc1F	> 10	0.24	
C[C@H](O)COc1cc(Cl)c(-c2nc(N3CCN(C(=O)C4CC(C)(C)C4)CC3)no2)cc1F	> 10	1.1	
N[C@@H](CO)COc1cc(Cl)c(-c2noc(C3CCN(C(=O)C4CCCC4)CC3)n2)cc1F	> 10	0.045	
CC1(C)CC(C(=O)N2CCN(c3noc(-c4cc(F)c(OC[C@@H]5COC(=O)N5)cc4Cl)n3)CC2)C1	> 10	> 10	
N[C@H](CO)COc1cc(Cl)c(-c2nc(N3CCN(C(=O)c4cccc(Cl)c4)CC3)no2)cc1F	> 10	2.4	
O=C(O)C1CN(Cc2cc(Cl)c(-c3nc(N4CCN(C(=O)C5CCCC5)CC4)no3)cc2F)C1	> 10	2.1	
N[C@@H](CO)COc1cc(Cl)c(-c2noc(N3CCN(C(=O)c4cccc(Cl)c4)CC3)n2)cc1F	> 10	0.012	
N[C@@H](CO)COc1cc(Cl)c(-c2nc(N3CCN(C(=O)c4ccccc4)CC3)no2)cc1F	> 10	0.0065	
N[C@H](CO)COc1cc(Cl)c(-c2nc(N3CCN(C(=O)C4CCCC4)CC3)no2)cc1F	> 10	0.42	
CC(C)(C(=O)N1CCN(c2noc(-c3cc(F)c(OC[C@@H](N)CO)cc3Cl)n2)CC1)C(F)(F)F	4.7	0.0098	%max [3]: 44%
N[C@@H](CO)COc1cc(Cl)c(-c2nc(N3CCN(C(=O)C4CCC4)CC3)no2)cc1F	> 10	0.017	
N[C@@H](CO)COc1cc(Cl)c(-c2nc(N3CCN(C(=O)c4cccc(Cl)c4)CC3)no2)cc1F	> 10	0.0041	
CC1(C)CC(C(=O)N2CCN(c3noc(-c4cc(F)c(OCCC(=O)O)cc4Cl)n3)CC2)C1	> 10	2.7	
CC1(C)CC(C(=O)N2CCN(c3noc(-c4cc(F)c(OCC(=O)O)cc4Cl)n3)CC2)C1	> 10	> 10	
N[C@@H](CO)COc1cc(Cl)c(-c2nc(N3CCN(C(=O)C4CCCCC4)CC3)no2)cc1F	> 10	0.0012	
N[C@@H](CO)COc1cc(Cl)c(-c2nc(N3CCN(C(=O)c4ccccn4)CC3)no2)cc1F	> 10	0.092	

Structure (SMILES)	EC50 [1] [µM]	EC50 [2] [µM]	also measured
CC1(C)CC(C(=O)N2CCN(c3noc(-c4cc(F)c(OCCCO)cc4Cl)n3)CC2)C1	> 10	1.1	
N[C@@H](CO)COc1cc(Cl)c(-c2nnc(N3CCN(C(=O)C4CCCC4)CC3)s2)cc1F	0.41	0.0005	%max [3]: 45%
N[C@@H](CO)COc1c(Cl)cc(-c2nc(N3CCN(C(=O)C4CCCCC4)CC3)no2)cc1Cl	> 10	> 10	
N[C@H](CO)COc1cc(Cl)c(-c2nc(N3CCN(C(=O)C4CCC4)CC3)no2)cc1F	> 10	1.3	
CC1(C)CC(C(=O)N2CCN(c3noc(-c4cc(F)c(OC[C@@H](N)CO)cc4Cl)n3)CC2)C1	0.45	0.0031	%max [3]: 63%
CC1(C)CC(C(=O)N2CCN(c3noc(-c4cc(F)c(OC[C@H](O)CO)cc4Cl)n3)CC2)C1	> 10	1.2	
CCc1cccnc1C(=O)N1CCN(c2noc(-c3cc(F)c(OC[C@@H](N)CO)cc3Cl)n2)CC1	> 10	0.0053	
N[C@@H](CO)COc1c(Cl)cc(-c2nc(N3CCN(C(=O)c4cccc(Cl)c4)CC3)no2)cc1Cl	> 10	> 5.4	
CCC(C)(C)C(=O)N1CCN(c2noc(-c3cc(F)c(OCC(N)CO)cc3Cl)n2)CC1 (configuration not stated)		0.046	
N[C@@H](CO)COc1cc(Cl)c(-c2nnc(N3CCN(C(=O)c4cccc(Cl)c4)CC3)s2)cc1F	0.38	0.0023	%max [3]: 48%
N[C@@H](CO)COc1cc(Cl)c(-c2nc(N3CCN(C(=O)C4CCCC4)CC3)no2)cc1F	> 10	0.0017	Drug metabolism (Plasma [4]): metabolite_detected; Activity (Rattus norvegicus): Toxic
CCC(C)(C)C(=O)N1CCN(c2noc(-c3ccccc3OC)n2)CC1		3.6	
N[C@H](COc1cc(Cl)c(-c2nc(N3CCN(C(=O)C4CCCC4)CC3)no2)cc1F)COP(=O)(O)O	0.94	0.0005	Ratio EC50 (Homo sapiens): 2000; Drug metabolism (Plasma [5]): metabolite_detected
CC1(C)CC(C(=O)N2CCN(c3noc(-c4cc(F)c(OCCO)cc4Cl)n3)CC2)C1	> 10	0.91	
N[C@@H](CO)COc1c(Cl)cc(-c2nc(N3CCN(C(=O)C4CCCC4)CC3)no2)cc1Cl	> 10	1.6	
CC1(C)CC(C(=O)N2CCN(c3noc(-c4cc(F)c(OC[C@@H](O)CO)cc4Cl)n3)CC2)C1	> 10	1.1	
